One data set deals with PDE2 (Homo sapiens, UniProt O00408). The data set is described as follows: In vitro PDE2 enzymatic inhibition assay (Bio-cAMP substrate, AlphaScreen detection).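 On all read-outs here: enzyme reaction run 0.5 h, then anti-cAMP acceptor and streptavidin donor beads added for 1 h in the dark before plate reading, compounds serially diluted from DMSO stock.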 The data set is classed as biochemical. The following applies: for IC50: in vitro, Bio-cAMP as substrate, mean of at least three experiments.
Chain of PDE2 (O00408 whole entry): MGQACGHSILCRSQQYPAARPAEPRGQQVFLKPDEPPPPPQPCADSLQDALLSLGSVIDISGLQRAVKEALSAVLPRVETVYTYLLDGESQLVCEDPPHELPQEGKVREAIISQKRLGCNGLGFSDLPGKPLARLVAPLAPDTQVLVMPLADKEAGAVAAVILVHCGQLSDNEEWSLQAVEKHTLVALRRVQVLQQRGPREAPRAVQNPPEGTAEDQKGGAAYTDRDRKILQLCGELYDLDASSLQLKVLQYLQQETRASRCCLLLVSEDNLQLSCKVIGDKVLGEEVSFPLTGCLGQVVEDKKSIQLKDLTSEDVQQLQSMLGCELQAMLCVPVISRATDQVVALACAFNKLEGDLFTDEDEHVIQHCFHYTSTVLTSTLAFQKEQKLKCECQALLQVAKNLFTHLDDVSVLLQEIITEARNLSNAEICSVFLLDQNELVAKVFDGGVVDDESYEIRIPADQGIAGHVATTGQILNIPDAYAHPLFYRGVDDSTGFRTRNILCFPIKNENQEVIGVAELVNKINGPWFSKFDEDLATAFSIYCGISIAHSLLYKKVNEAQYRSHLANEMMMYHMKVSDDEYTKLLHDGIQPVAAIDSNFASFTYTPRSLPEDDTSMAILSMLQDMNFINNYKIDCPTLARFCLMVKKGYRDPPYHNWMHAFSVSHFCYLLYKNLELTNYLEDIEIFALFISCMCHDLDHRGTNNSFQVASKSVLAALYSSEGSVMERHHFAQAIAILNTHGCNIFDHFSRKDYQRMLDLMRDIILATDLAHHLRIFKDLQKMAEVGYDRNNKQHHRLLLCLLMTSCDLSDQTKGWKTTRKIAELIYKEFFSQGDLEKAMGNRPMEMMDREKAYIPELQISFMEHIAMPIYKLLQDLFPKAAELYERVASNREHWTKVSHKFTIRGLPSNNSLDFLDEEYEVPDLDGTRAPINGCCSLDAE
The next data set has as its system HT-22 cells. The data set is described as follows: Protection of HT-22 cells against corticosterone-induced neurotoxicity (cell viability). In kind it is cell-based. From the text:
Corticosterone can induce PDE2A, PDE3B, PDE4A, PDE4D, PDE10, and PDE11 expression in HT-22 cells, which results in significant cell lesion. Thus, corticosterone-induced HT-22 neurotoxicity was generally employed as classical cell model to screen PDE-inhibitors for curing neurodegenerative disease, such as AD and PD.
To determine whether compound 1f could promote neuron proliferation and protect HT-22 cells against corticosterone-induced neurotoxicity by PDE2 inhibition, the viability of HT-22 cells was measured in the presence of 100 μM corticosterone (positive control), corticosterone absence (control), and different concentrations of 1f.
We added 943 µL of DMSO solution to 8.2 mg of dexamethasone acetate to obtain a 20 mM stock solution, froze it at −20 °C, and diluted it to 2 mM with serum-containing medium before use. The test compound was dissolved in DMSO to obtain a 20 mM stock solution and stored at −20 °C. Diluted with serum-containing medium to a concentration of 2 × 100, 2 × 50, 2 × 25, 2 × 12.5, 2 × 6.25, 2 × 3.125 μM before use.
After resuscitation, HT-22 cells were cultured in DMEM medium (containing 10% FBS) at 37 °C with 5% CO2. After the cells grew to more than 80% cell fusion, we passaged and seeded the plate, and the density of each well should be 10,000 cells/100 μL/well and cultured for 24 h. After the cells adhered to the wall, drug intervention was given.
10 µL solution of 2 mM dexamethasone acetate was cultured at 37 °C for 30 min. 100 µL drug solution of 2 × 100, 2 × 50, 2 × 25, 2 × 12.5, 2 × 6.25, and 2 × 3.125 μM were added to make the final concentration of dexamethasone acetate 100 μM, and the final concentrations of the drug were 100, 50, 25, 12.5, 6.25, 3.125 μM. After preparation, it took another 24 h to continue the culture. […]
After the incubation, 50 µL of MTT was added to each well, and it needed another 4 h to incubate. […] Finally, the wavelength A 490 was measured. The data were expressed as mean ± sd (n = 5), and one-way anova analysis of variance was used for data statistics; p < 0.05 is defined as a significant difference.

The text below walks through data of paper PMC8199001, “Design, Synthesis, and Biological Evaluation of Novel 6H-Benzo[c]chromen-6-one Derivatives as Potential Phosphodiesterase II Inhibitors” (International Journal of Molecular Sciences, 2021).

SMILES strings stand for the structures. Entries after “also recorded” stand apart in the source; their conditions may differ. Where only a bound is given, the exact number is not on record here.

Protocol for PDE2: Preparation of 1*Rection Buffer: we took 1 mL 10*Rection Buffer, added 9 mL ultra-pure water to swirl and mix well, and put it on ice; preparation of PDE2 solution: 210 μL of 1*Rection Buffer were added into a centrifuge tube, then 30 μL PDE2 were added, mixed well, equal to 8-times dilution, and placed on ice; preparation of compound solution with gradient concentration: DMSO was used as the solvent to prepare 10 mM compound solution, and then diluted with 1*Rection Buffer.
We took 2 μL of the diluted compound solution of each concentration into the microplate, added 4 μL PDE2 solution, numbered them A1–A9, added 2 μL 1*Rection Buffer and 4 μL PDE2 into A10, added 2 μL compound solution and 4 μL 1*Rection Buffer to A11, added 6 μL 1*Rection Buffer to A13, and ensured the three groups are parallel to each other. […] The reaction time was 0.5 h in the microporous plate thermostatic oscillator.
Anti-Camp Alohascreen Acceptor and Streptavidin Coated Donor Bead were purchased from Perkin Elmer Company according to response volume: 1* Immunoassay Buffer 549.32 μL and 3.70 μL anti-cAMP AlohaScreen Acceptor were collected under dark conditions. We took 1.98 μL Streptavidin coated Donor Bead, mixed well, added 15 μL mixture to each well after 1 h reaction, and reacted it in the dark for 1 h. After the reaction, we tested it with multilabel microplate detector.

One may read the IC50 as the concentration that inhibits the measured activity by half. High values mean lower potency, low ones higher potency. One may read the melting point as the temperature of the solid-liquid transition. `CCCCOc1ccc2c(c1)oc(=O)c1ccccc12` [Compound 1f, 3-butoxy-6H-benzo[c]chromen-6-one] gave a melting point of 53.6 to 55.5 °C. Further, the “PDE2 inhibitory activity (result in words)” value at PDE2 (enzyme level) is on record as “good PDE2 inhibitory activity”. The IC50 on PDE2 is 3.67 ± 0.47 µM. Further, the “Cell viability of HT-22 cells exposed to corticosterone (result in words)” value in the data set on HT-22 cells (100 μM corticosterone, compound 6.25~25 μM, 24 h, dose-dependent) is recorded as “protected cells against corticosterone (CORT)-induced cytotoxicity in a concentration-dependent manner; also recorded: significantly increased cell viability; also recorded: protect HT-22 cells from corticosterone-induced death”. The “Best concentration for increasing HT-22 cell viability” value with HT-22 cells (100 μM corticosterone, p < 0.01) was 12.5 µM. The “Protective effect on HT-22 cells compared with BAY 60-7550” value in the data set on HT-22 cells (comparison with BAY 60-7550 at 1.0 μM) is “similar; also recorded: comparable activity”.
In the case of `COc1ccc2c(c1)c(=O)oc1cc(OCc3cc(C)nn3C)ccc12` [Compound 2u, 3-((1,3-Dimethyl-1H-pyrazol-5-yl)methoxy)-8-methoxy-6H-benzo[c]chromen-6-one], the melting point was in the range of 184.6 to 186.6 °C. At PDE2, this molecule yielded a half-maximal inhibitory concentration (IC50) of 29.4 ± 5.01 µM.
For `COc1ccc2c(c1)c(=O)oc1cc(OCCn3cccn3)ccc12` [Compound 2w, 3-(2-(1H-pyrazol-1-yl)ethoxy)-8-methoxy-6H-benzo[c]chromen-6-one], in that order: 159 to 161.1 °C and over 50 µM.
